Results as given in PubChem BioAssay AID493223 (Johns Hopkins Ion Channel Center, 2011).
Activity calls are given as the source filed them.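 How the source made its calls: active means compound that raises the TRPC4 channel signal at some tested dose, with a fitted concentration curve; inactive means the rest.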

Each compound was assayed against Transient receptor potential cation channel C4 (TRPC4), mouse (assay: potentiators of mouse TRPC4 calcium response – cell-based, HEK293 TRPC4, Fluo-4 calcium flux, dose response (AID 493223)). Conditions: HEK293 TRPC4 cells, Fluo-4 calcium fluorescence ratio.

Question: `CN(C)CCN(C)Cc1cc(Br)ccc1O` was tested. Which EC50 did it give?
Answer: The EC50 was 1780 nM.

Question: How did the EC50 turn out when `CCN1CCN(Cc2cc(Br)ccc2O)CC1` was run?
Answer: The EC50 was 860 nM.

Same assay, conditions: HEK293 TRPC4 cells, Fluo-4 calcium fluorescence ratio; at 20 µM (top of the series)

Question: With `Oc1ccc(Br)cc1CN1CCN(c2ccccn2)CC1` as the compound, how does the “fluorescence ratio, higher = potentiation” value (shortened to “fluorescence ratio”) read?
Answer: Its value is “inactive”.

Question: Which “fluorescence ratio” value does the source give for `Oc1ccc(Br)cc1CN1CCN(c2ccc(F)cc2F)CC1` here?
Answer: The value was “inactive”.

Question: With `Oc1ccc(F)cc1CN1CCOCC1` as the compound, how does the “fluorescence ratio” value read?
Answer: Its value is “inactive”.

Question: For `Oc1ccc(F)cc1CN1CCN(CC2CCCO2)CC1` (stereo not drawn), which “fluorescence ratio” value is on record?
Answer: The value was “inactive”.

Question: `Oc1ccc(F)cc1CN1CCN(c2ccccn2)CC1` was tested. Which “fluorescence ratio” value did it give?
Answer: Its value is “inactive”.

Question: How did the “fluorescence ratio” value turn out when `COc1ccc(N2CCN(Cc3cc(F)ccc3O)CC2)cc1` was run?
Answer: The value was “inactive”.

Question: With `Oc1ccc(Cl)cc1CN1CCN(c2ncccn2)CC1` as the compound, how does the “fluorescence ratio” value read?
Answer: The value was “inactive”.

Question: With `CC1CC(C)CN(Cc2cc(Cl)ccc2O)C1` (stereo not drawn) as the compound, how does the “fluorescence ratio” value read?
Answer: The value was “inactive”.

Question: How did the “fluorescence ratio” value turn out when `Oc1ccc(Cl)cc1CN1CCCCC1` was run?
Answer: Its value is “inactive”.

Question: How did the “fluorescence ratio” value turn out when `Oc1ccc(F)cc1CN1CCCCC1` was run?
Answer: Its value is “inactive”.

Question: `CC1CC(C)CN(Cc2cc(F)ccc2O)C1` (stereo not drawn) was tested. Which “fluorescence ratio” value did it give?
Answer: Its value is “inactive”.

Question: Which “fluorescence ratio” value does the source give for `CC(C)(C)OC(=O)N1CCN(Cc2cc(Br)ccc2O)CC1` here?
Answer: Its value is “inactive”.

Question: For `Oc1ccc(F)cc1CN1CCN(c2ccncc2)CC1`, which “fluorescence ratio” value is on record?
Answer: The value was “inactive”.

Question: Which “fluorescence ratio” value does the source give for `COCCN(C)Cc1cc(F)ccc1O` here?
Answer: The value was “inactive”.

Question: How did the “fluorescence ratio” value turn out when `Oc1ccc(Br)cc1CN1CCN(CC2CCCO2)CC1` (stereo not drawn) was run?
Answer: Its value is “inactive”.

Question: Which “fluorescence ratio” value does the source give for `CC(C)(C)OC(=O)N1CCN(Cc2cc(Cl)ccc2O)CC1` here?
Answer: The value was “inactive”.

Question: `Oc1ccc(F)cc1CN1CCC(N2CCOCC2)CC1` was tested. Which “fluorescence ratio” value did it give?
Answer: Its value is “inactive”.

Question: `Oc1ccc(Cl)cc1CN1CCN(c2ccccn2)CC1` was tested. Which “fluorescence ratio” value did it give?
Answer: The value was “inactive”.

Question: `Oc1ccc(F)cc1CN1CCOc2ccccc21` was tested. Which “fluorescence ratio” value did it give?
Answer: Its value is “inactive”.

Question: With `Oc1ccc(Br)cc1CN1CCN(c2ccncc2)CC1` as the compound, how does the “fluorescence ratio” value read?
Answer: Its value is “inactive”.

Question: With `CC1CCN(Cc2cc(Cl)ccc2O)CC1` as the compound, how does the “fluorescence ratio” value read?
Answer: The value was “inactive”.

Question: With `CCN(CC)Cc1cc(Cl)ccc1O` as the compound, how does the “fluorescence ratio” value read?
Answer: The value was “inactive”.

Question: How did the “fluorescence ratio” value turn out when `Oc1ccc(Cl)cc1CN1CCC(N2CCOCC2)CC1` was run?
Answer: Its value is “inactive”.

Question: For `CC1CCN(Cc2cc(Br)ccc2O)CC1`, which “fluorescence ratio” value is on record?
Answer: The value was “inactive”.

Question: For `Oc1ccc(F)cc1CN1CCN(c2ncccn2)CC1`, which “fluorescence ratio” value is on record?
Answer: Its value is “inactive”.

Question: `COc1ccc(N2CCN(Cc3cc(Cl)ccc3O)CC2)cc1` was tested. Which “fluorescence ratio” value did it give?
Answer: Its value is “inactive”.

Question: `Oc1ccc(Br)cc1CN1CCCCC1` was tested. Which “fluorescence ratio” value did it give?
Answer: Its value is “inactive”.

Question: For `CN1CCN(Cc2cc(F)ccc2O)CC1`, which “fluorescence ratio” value is on record?
Answer: The value was “inactive”.

Question: How did the “fluorescence ratio” value turn out when `CC1CCN(Cc2cc(F)ccc2O)CC1` was run?
Answer: Its value is “inactive”.

Question: How did the “fluorescence ratio” value turn out when `CN(C)CCN(C)Cc1cc(F)ccc1O` was run?
Answer: The value was “inactive”.

Question: How did the “fluorescence ratio” value turn out when `Oc1ccc(Cl)cc1CN1CCCC1` was run?
Answer: Its value is “inactive”.

Question: `COCCN(C)Cc1cc(Cl)ccc1O` was tested. Which “fluorescence ratio” value did it give?
Answer: The value was “inactive”.

Question: Which “fluorescence ratio” value does the source give for `Oc1ccc(Cl)cc1CN1CCOc2ccccc21` here?
Answer: Its value is “inactive”.

Question: For `Oc1ccc(Br)cc1CN1CCOc2ccccc21`, which “fluorescence ratio” value is on record?
Answer: The value was “inactive”.

Question: Which “fluorescence ratio” value does the source give for `CCN(CC)Cc1cc(F)ccc1O` here?
Answer: Its value is “inactive”.

Question: With `Oc1ccc(Br)cc1CN1CCC(N2CCOCC2)CC1` as the compound, how does the “fluorescence ratio” value read?
Answer: The value was “inactive”.

Question: `Oc1ccc(Br)cc1CN1CCN(c2ncccn2)CC1` was tested. Which “fluorescence ratio” value did it give?
Answer: The value was “inactive”.

Question: `CC1CC(C)CN(Cc2cc(Br)ccc2O)C1` (stereo not drawn) was tested. Which “fluorescence ratio” value did it give?
Answer: Its value is “inactive”.

Question: Which “fluorescence ratio” value does the source give for `COc1ccc(N2CCN(Cc3cc(Br)ccc3O)CC2)cc1` here?
Answer: The value was “inactive”.

Question: How did the “fluorescence ratio” value turn out when `Oc1ccc(F)cc1CN1CCCC1` was run?
Answer: Its value is “inactive”.

Question: `Oc1ccc(Cl)cc1CN1CCN(c2ccncc2)CC1` was tested. Which “fluorescence ratio” value did it give?
Answer: Its value is “inactive”.

Question: With `Oc1ccc(Br)cc1CN1CCCC1` as the compound, how does the “fluorescence ratio” value read?
Answer: Its value is “inactive”.

Question: `CCN(CC)Cc1cc(Br)ccc1O` was tested. Which “fluorescence ratio” value did it give?
Answer: The value was “inactive”.

Question: Which “fluorescence ratio” value does the source give for `COCCN(C)Cc1cc(Br)ccc1O` here?
Answer: The value was “inactive”.

Question: Which “fluorescence ratio” value does the source give for `CN1CCN(Cc2cc(Br)ccc2O)CC1` here?
Answer: The value was “inactive”.

Question: How did the “fluorescence ratio” value turn out when `CN1CCN(Cc2cc(Cl)ccc2O)CC1` was run?
Answer: The value was “inactive”.

Question: `CC(C)(C)OC(=O)N1CCN(Cc2cc(F)ccc2O)CC1` was tested. Which “fluorescence ratio” value did it give?
Answer: Its value is “inactive”.

Question: How did the “fluorescence ratio” value turn out when `Oc1ccc(Cl)cc1CN1CCN(CC2CCCO2)CC1` (stereo not drawn) was run?
Answer: Its value is “inactive”.

Question: Which “fluorescence ratio” value does the source give for `Oc1ccc(F)cc1CN1CCN(c2ccc(F)cc2F)CC1` here?
Answer: Its value is “inactive”.

Question: How did the “fluorescence ratio” value turn out when `Oc1ccc(Br)cc1CN1CCOCC1` was run?
Answer: The value was “inactive”.

Question: Which “fluorescence ratio” value does the source give for `Oc1ccc(Cl)cc1CN1CCN(c2ccc(F)cc2F)CC1` here?
Answer: The value was “inactive”.
